According to US11576979B2, “Pyrrolobenzodiazepine prodrugs and antibody conjugates thereof” (GENENTECH, INC., priority 2016, dated 2023):

Assays:
SK-BR-3 = assay: CellTiter-Glo toxicity, 3 days (Example 7); format: cell-based; settings: Homo sapiens, SK-BR-3, 72 h, read-out: SK-BR-3 IC50 (nM)
Description: The toxicity of PBD monomer disulfide prodrugs 1 to 4, PBD dimer disulfide prodrugs 1 and 4, PBD monomer control 1 and PBD dimer control 1 were evaluated against SK-BR-3 cell cultures. […] The HER2-positive breast cancer cell line, SK-BR-3, was obtained internally at Genentech after having been verified by sequence analysis. The cells were grown at 37 Celsius in DMEM+10% FBS supplemented with 2 mM L-glutamine for the duration of this assay. On the first day of the experiment, designated “Day −1”, SK-BR-3 cells were harvested from tissue culture flasks, counted, and then seeded into 96-well plates at a concentration of 7,500 cells per well. The next day, designated “Day 0”, cell culture media was removed from the cells and replaced with 100 uL of fresh media containing a serial dilution (1:3) of the compounds in Table 5 below. The plates were then returned to the 37 Celsius incubator and allowed to incubate for 3 days. On “Day 3” of the assay, the plates were removed from the incubator and allowed to equilibrate to room temperature before adding 100 uL of room-temperature CellTiter-Glo reagent (Promega). The plates were then agitated at 300 rpm for 10 minutes. The luminescence signal generated from this reaction was recorded on an Envision plate reader (Perkin-Elmer). The data were arranged in Excel (Microsoft) and graphed in Kaleidagraph (Synergy Software).

Igrov-1 = assay: CellTiter-Glo toxicity, 4 days (Example 9); format: cell-based; settings: Homo sapiens, IGROV-1, 96 h, 4 days of drug incubation; Table 7A
In short: (§1)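 Cells were seeded in 384-well plates, dosed 24 h later and incubated with drug for 4 days. Viability was read as ATP luminescence by CellTiter-Glo and normalised to untreated controls. IC50 is the concentration giving 50% of maximum cell killing.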

UACC-257 = assay: CellTiter-Glo toxicity, 4 days (Example 9); format: cell-based; settings: Homo sapiens, UACC-257, 96 h, 4 days of drug incubation; Table 7A
In short: as §1

BJAB = assay: Standard cell panel (Table 7B); format: cell-based; settings: Homo sapiens
Excerpt: (§2) PBD dimer control 1 and PBD dimer control 2 were further evaluated in standard cell panels against a number of cell lines.

HCC1569 X2 = assay: Standard cell panel (Table 7B); format: cell-based; settings: Homo sapiens
Excerpt: as §2

HCC1937 = assay: Standard cell panel (Table 7B); format: cell-based; settings: Homo sapiens
Excerpt: as §2

KPL-4 = assay: Standard cell panel (Table 7B); format: cell-based; settings: KPL4
Excerpt: as §2

MES-SA/Dx5 = assay: Standard cell panel (Table 7B); format: cell-based; settings: Homo sapiens
Excerpt: as §2

MES-SA = assay: Standard cell panel (Table 7B); format: cell-based; settings: Homo sapiens
Excerpt: as §2

NCI-H1781 = assay: Standard cell panel (Table 7B); format: cell-based
Excerpt: as §2

SW 900 = assay: Standard cell panel (Table 7B); format: cell-based; settings: Homo sapiens, SW900
Excerpt: as §2

T-47D = assay: Standard cell panel (Table 7B); format: cell-based; settings: Homo sapiens, T47D
Excerpt: as §2

KPL-4 Cell line = assay: Cell viability, DTD-activated quinone prodrugs (Example 15); format: cell-based; settings: KPL4, read-out: IC50 Potency (nM)
Description: (§3) The toxicity of PBD dimer diaphorase prodrug 1, PBD monomer diaphorase prodrug 2, PBD dimer control 1 and PBD monomer control 1 were evaluated against KPL-4 and WSU cell lines for cell viability. The KPL-4 cell line is was a high DTD cell line characterized by NQO1 nRPKM of 839 and the WSU cell line was a low DTD cell line characterized by a NQO1 nRPKM of 1.36. The IC50 ratios are based on the prodrug IC50 value relative to the PBD dimer control.

WSU Cell line = assay: as above; format: cell-based; settings: read-out: IC50 Potency (nM)
Description: as §3

[1] = tested on: double strand DNA Oligos 1 and 2; assay: DNA oligo binding, LC/MS/UV; settings: 100 uM compound, 100 uM DNA, 1 hour, 37 C
Description: For DNA binding determination, the compounds were incubated at 100 μM with 100 μM double strand DNA Oligos 1 and 2 for 1 hour in 10 mM Bis-Tris, pH 7.1 at 37° C. The single strand DNA Oligos (5′-TATAGAATCTATA-3′ and 3′-ATATCTTAGATAT-5′) were synthesized at Genentech. The samples were analyzed by LC/MS/UV (210-450 nm) on Sciex TripleTOF 5600 on a Hypersil Gold C18 column (100×2.1, 1.9 Thermo Scientific). The column was eluted at 0.4 mL/min by a gradient of buffer A (50 mM hexafluoro-isopropanol and 15 mM diisopropylethylamine) to buffer B (50% A and 50% of 1:1 methanol:acetonitrile), 5% 0-0.5 min, 5-25% B 0.5-25 min, 25-95% B 25-40 min, and to 95% B 40-42 min. The % remaining was an average of the starting DNA oligos remaining in incubations (n=2). The products were characterized by LC/MS in a negative ESI ion mode.

C=C1C[C@H]2C=Nc3cc(OCCCCCOc4cc5c(cc4OC)C(=O)N4CC(=C)C[C@H]4C=N5)c(OC)cc3C(=O)N2C1 [PBD dimer control 1]
IC50 (SK-BR-3): 0.144 nM
IC50 (Igrov-1): 0.061 nM
IC50 (UACC-257): 0.95 nM
IC50 (BJAB): 0.015 nM
IC50 (HCC1569 X2): 0.097 nM
IC50 (HCC1937): 0.15 nM
IC50 (KPL-4): 0.053 nM
IC50 (MES-SA/Dx5): 0.56 nM
IC50 (MES-SA): 0.028 nM
IC50 (NCI-H1781): 0.011 nM
IC50 (SW 900): 0.078 nM
IC50 (T-47D): 0.032 nM
IC50 (KPL-4 Cell line): 2.09 nM
IC50 (WSU Cell line): 0.2 nM
% DNA oligo remaining [1]: <1%
